# Experiments:
# [1] = system: A2058; test: Cell growth inhibition assay (CellTiter-Glo); assay type: cell-based, human
# Procedure: (§1) Cell Culture and Cell Growth Inhibition Assay.
# (§2) The chosen cell lines are all human cancer cell lines except for the 4T1 murine breast cancer line, representing a wide variety of cancer types including breast (MDA-MB-453), kidney (A498), lung (H1975), pancreatic (PANC-1) and endometrial cancer (AN3CA, HEC-1A, and RL95-2), glioblastoma (U251 and U-87MG), melanoma (A2058 and LOXIMVI) and uterine sarcoma (MES-SA). All the cancer cell lines can be obtained from the American Type Culture Collection (ATCC, Manassas, Va., USA) with the exception of U251 which can be provided by the National Cancer Institute Tumor Repository (Frederick, Md.) and is cultured in the standard tissue culture media appropriate for each cell line. All the culture media are supplemented with 10% fetal bovine serum (FBS), 100 I.U./mL penicillin and 100 μg/mL streptomycin. For the cell growth inhibition assay, the cells are seeded in 96-well tissue culture plates at 500-3000 cells/well (seeding density empirically adjusted for each cell line based on growth rate optimization). The cells are allowed to attach for a minimum of 5 h prior to compound administration. The cells are incubated for a period of 4 days after compound addition. Following the incubation period, CellTiter-Glo reagent (Promega, Madison, Wis., USA) is added to all the wells to assess cell proliferation/viability. Luminescence is measured using an Envision microplate reader (Perkin Elmer, Waltham, Mass., USA). The IC50 values were calculated as the concentration which inhibited cell growth to 50% of DMSO control treated cell populations.
# [2] = system: H522-T1; test: Cell growth inhibition assay (CellTiter-Glo); assay type: cell-based, human
# Procedure: as §1, §2
# [3] = system: HCT-116; test: Cell growth inhibition assay (CellTiter-Glo); assay type: cell-based, human
# Procedure: as §1, §2
# [4] = system: SF-268; conditions: CNS SF-268; cited from earlier work
# [5] = system: P388 murine lymphocytic leukemia cell line; conditions: cited from earlier work
# [6] = system: CCRF-CEM; conditions: leukemia CCRF-CEM; cited from earlier work
# [7] = system: MALME-3M; conditions: melanoma MALME-3M; read-out: LC50 (the source's name); cited from earlier work
# [8] = system: SK-MEL-2; conditions: melanoma SK-MEL-2; read-out: LC50 (the source's name); cited from earlier work
# [9] = Homo sapiens, 96 h, 4 days incubation
# [10] = ratio IC50[IMR-90]:IC50[tumor cell line]
structure (smiles),measurement,setting,value
"C=C(C)C[C@H](OC)[C@H](O)C(=O)N[C@@H](OC)[C@@H]1C[C@@H](O)C(C)(C)[C@@H](C[C@H](O)[C@@H](C)[C@H]2Cc3c(C)c(O)cc(O)c3C(=O)O2)O1 [Irciniastatin A, (+)-Irciniastatin A]",IC50,[1]; [9],0.4 nM
same,"Selectivity vs. IMR-90, A2058",[1]; [10],68
same,IC50,[2]; [9],1 nM
same,"Selectivity vs. IMR-90, H522-T1",[2]; [10],27
same,IC50,[3]; [9],4 nM
same,"Selectivity vs. IMR-90, HCT-116",[3]; [10],7
same,Growth Inhibition of Cancer Cell Lines (GI50),[4],3.4 ng/mL
same,Growth Inhibition of Cancer Cell Lines (GI50),[5],4.13 ng/mL
same,LC50,[6],> 25000 nM
same,CC50,[7],< 2.5 nM
same,CC50,[8],> 25000 nM

# From US9540355B2, “Irciniastatin analogues” (priority 2013, dated 2017)
